The source made the active and inactive calls. No cut-off for these calls is given here.
Columns and labels:
Jurkat = test: Inhibition of TNF-alpha-induced necroptosis in FADD-deficient human Jurkat cells; type: functional, cell-based
[1] = target: T1, Receptor-interacting serine/threonine-protein kinase 1 (Homo sapiens) (UniProt Q13546); test: Inhibition of GST-tagged human recombinant RIP1 kinase expressed in Sf9 cells
T1 sequence (whole entry): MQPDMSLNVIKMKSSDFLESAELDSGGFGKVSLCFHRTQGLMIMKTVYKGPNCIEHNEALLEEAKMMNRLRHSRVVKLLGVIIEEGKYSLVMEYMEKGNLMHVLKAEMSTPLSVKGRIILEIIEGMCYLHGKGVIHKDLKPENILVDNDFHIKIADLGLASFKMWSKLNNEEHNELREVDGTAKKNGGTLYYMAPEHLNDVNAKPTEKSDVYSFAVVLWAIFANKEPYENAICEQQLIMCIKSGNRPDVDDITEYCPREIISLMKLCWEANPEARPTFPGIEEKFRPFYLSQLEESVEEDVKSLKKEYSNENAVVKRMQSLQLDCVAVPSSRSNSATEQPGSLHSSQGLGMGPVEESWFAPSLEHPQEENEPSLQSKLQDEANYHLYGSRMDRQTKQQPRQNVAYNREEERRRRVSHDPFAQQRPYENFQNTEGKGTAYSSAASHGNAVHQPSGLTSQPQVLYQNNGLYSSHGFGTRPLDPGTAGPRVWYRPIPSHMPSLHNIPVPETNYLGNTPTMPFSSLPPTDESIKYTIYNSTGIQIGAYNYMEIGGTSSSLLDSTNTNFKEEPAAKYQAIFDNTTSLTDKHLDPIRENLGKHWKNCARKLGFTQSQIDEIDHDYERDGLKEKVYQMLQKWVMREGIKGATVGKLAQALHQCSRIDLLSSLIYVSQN

## N=C1S/C(=C\c2c[nH]nc2-c2cccc(F)c2)C(=O)N1c1nccs1
Jurkat
  Activity: inactive

## N=C1S/C(=C\c2c[nH]nc2-c2ccc(N3CCCC3)cc2)C(=O)N1c1nccs1
Jurkat
  EC50: 9.53 µM

## N=C1S/C(=C\c2c[nH]nc2-c2cccc(F)c2)C(=O)N1c1nncs1
Jurkat
  Activity: inactive

## Cc1ccc(-c2ccc(-c3n[nH]cc3/C=C3\SC(=N)N(c4nccs4)C3=O)cc2)cc1
Jurkat
  EC50: 4.38 µM

## N=C1S/C(=C\c2c[nH]nc2-c2ccc(F)cc2)C(=O)N1c1nncs1
Jurkat
  Activity: inactive

## N=C1S/C(=C\c2c[nH]nc2-c2ccccc2F)C(=O)N1c1nncs1
Jurkat
  Activity: inactive

## N=C1S/C(=C\c2c[nH]nc2-c2ccc(C(=O)N3CCCCC3)cc2)C(=O)N1c1nccs1
Jurkat
  EC50: 2.09 µM

## N=C1S/C(=C\c2c[nH]nc2-c2ccc3c(c2)OCO3)C(=O)N1c1nccs1
Jurkat
  EC50: 34.8 µM

## Cc1ccc(-c2nocc2/C=C2\SC(=N)N(c3nccs3)C2=O)cc1
Jurkat
  Activity: inactive

## N=C1S/C(=C\c2c[nH]nc2-c2ccc([N+](=O)[O-])cc2)C(=O)N1c1nccs1
Jurkat
  EC50: 23 µM

## Cc1cnc(N2C(=N)S/C(=C\c3c[nH]nc3-c3ccc(F)cc3)C2=O)s1
Jurkat
  EC50: 23.1 µM

## N=C1S/C(=C\c2conc2-c2ccc(F)cc2)C(=O)N1c1nccs1
Jurkat
  Activity: inactive

## Cc1ccc(-c2n[nH]cc2/C=C2\SC(=N)N(c3nccs3)C2=O)cc1
Jurkat
  EC50: 7.77 µM

## N=C1S/C(=C\c2c[nH]nc2-c2ccc(-c3ccccc3)cc2)C(=O)N1c1nccs1
Jurkat
  EC50: 1.29 µM

## N=C1S/C(=C\c2c[nH]nc2-c2ccc(C(=O)N3CCOCC3)cc2)C(=O)N1c1nccs1
Jurkat
  EC50: 7.19 µM

## N=C1S/C(=C\c2c[nH]nc2-c2ccc(S(=O)(=O)c3ccccc3)cc2)C(=O)N1c1nccs1
[1]
  Activity: inactive
Jurkat
  EC50: 1.78 µM

## COc1ccc(-c2n[nH]cc2/C=C2\SC(=N)N(c3nccs3)C2=O)cc1
Jurkat
  EC50: 14.9 µM

## N=C1S/C(=C\c2cc(Cc3ccccc3)[nH]c2-c2ccc(F)cc2)C(=O)N1c1nccs1
Jurkat
  Activity: inactive

## N=C1S/C(=C\c2c[nH]nc2-c2ccc(-c3ccc(Cl)cc3)cc2)C(=O)N1c1nccs1
Jurkat
  EC50: > 100 µM

## N=C1S/C(=C\c2c[nH]nc2-c2ccc(N3CCSCC3)cc2)C(=O)N1c1nccs1
Jurkat
  EC50: 3.3 µM

## N=C1S/C(=C\c2c[nH]nc2-c2ccc(Cl)cc2)C(=O)N1c1nccs1
Jurkat
  EC50: 15.6 µM

## N=C1S/C(=C\c2n[nH]nc2-c2ccccc2)C(=O)N1c1nccs1
Jurkat
  Activity: inactive

## N=C1S/C(=C\c2n[nH]nc2-c2ccc(Cl)cc2)C(=O)N1c1nccs1
Jurkat
  Activity: inactive

## N=C1S/C(=C\c2conc2-c2ccc([N+](=O)[O-])cc2)C(=O)N1c1nccs1
Jurkat
  Activity: inactive

## N=C1S/C(=C\c2cc(-c3ccccc3)[nH]c2-c2ccc(F)cc2)C(=O)N1c1nccs1
Jurkat
  Activity: inactive

## N=C1S/C(=C\c2c[nH]nc2-c2ccc(F)cc2)C(=O)N1c1nccs1
Jurkat
  EC50: 10.6 µM

## N=C1S/C(=C\c2c[nH]nc2-c2ccc(O)cc2)C(=O)N1c1nccs1
Jurkat
  EC50: 32.7 µM

## N=C1S/C(=C\c2c[nH]nc2-c2ccc(-c3ccc(F)cc3)cc2)C(=O)N1c1nccs1
Jurkat
  EC50: 3.87 µM

## N=C1S/C(=C\c2c[nH]nc2-c2ccc(N3CCOCC3)cc2)C(=O)N1c1nccs1
Jurkat
  EC50: 2.93 µM

## N=C1S/C(=C\c2c[nH]nc2-c2ccc(Br)cc2)C(=O)N1c1nccs1
Jurkat
  EC50: 34.5 µM

## COc1ccc(-c2ccc(-c3n[nH]cc3/C=C3\SC(=N)N(c4nccs4)C3=O)cc2)cc1
Jurkat
  EC50: 2.59 µM

## N=C1S/C(=C\c2conc2-c2ccc(Cl)cc2)C(=O)N1c1nccs1
Jurkat
  Activity: inactive

## N=C1S/C(=C\c2c[nH]nc2-c2ccc(F)c(N3CCOCC3)c2)C(=O)N1c1nccs1
Jurkat
  EC50: 2.9 µM

## N=C1S/C(=C\c2c[nH]nc2-c2ccc(-c3cccc(F)c3)cc2)C(=O)N1c1nccs1
Jurkat
  EC50: 48 µM

## N=C1S/C(=C\c2c[nH]nc2-c2ccccc2F)C(=O)N1c1nccs1
Jurkat
  Activity: inactive

## N=C1S/C(=C\c2c[nH]nc2-c2ccccc2)C(=O)N1c1nncs1
Jurkat
  Activity: inactive

## N=C1S/C(=C\c2c[nH]nc2-c2ccc(F)c(F)c2)C(=O)N1c1nccs1
Jurkat
  EC50: 6.32 µM

## Cc1csc(N2C(=N)S/C(=C\c3c[nH]nc3-c3ccc(F)cc3)C2=O)n1
Jurkat
  EC50: 5.25 µM

## Cc1cc(/C=C2\SC(=N)N(c3nccs3)C2=O)c(-c2ccc(F)cc2)[nH]1
Jurkat
  Activity: inactive

## N=C1S/C(=C\c2n[nH]nc2-c2ccc(F)cc2)C(=O)N1c1nccs1
Jurkat
  Activity: inactive

## N=C1S/C(=C\c2c[nH]nc2-c2ccc(N3CCCCC3)cc2)C(=O)N1c1nccs1
Jurkat
  EC50: 6.36 µM

## N=C1S/C(=C\c2c[nH]nc2-c2ccccc2)C(=O)N1c1nccs1
Jurkat
  EC50: 40.6 µM

## COc1ccccc1-c1ccc(-c2n[nH]cc2/C=C2\SC(=N)N(c3nccs3)C2=O)cc1
Jurkat
  EC50: 2.41 µM

## N=C1S/C(=C\c2cc(CC(N)=O)[nH]c2-c2ccc(F)cc2)C(=O)N1c1nccs1
Jurkat
  Activity: inactive

## COc1ccc(-c2n[nH]nc2/C=C2\SC(=N)N(c3nccs3)C2=O)cc1
Jurkat
  Activity: inactive

Reference: ChEMBL document CHEMBL1144190, “Structure-activity relationship study of a novel necroptosis inhibitor, necrostatin-7” (Bioorg Med Chem Lett, 2008)
